Results published in paper PMC3827244, “An Ultrasensitive High Throughput Screen for DNA Methyltransferase 1-Targeted Molecular Probes” (PLoS ONE, 2013).
Like-named read-outs stand apart in the source and are kept apart here.

Key:
[1] = target: T1, DNMT1 (amino acids 621–1616) (Homo sapiens, UniProt P26358); experiment: Detergent test, endonuclease-coupled DNA methylation assay; type: biochemical; details: 5 µM compound
T1 construct: RFTS-lacking DNMT1, amino acids 621–1616; made in house
Description: The effect of detergent on observed DNMT1 inhibition was examined using the endonuclease-coupled DNA methylation assay. […] A control containing GlaI in the absence of DNMT1 was subtracted from each assay condition. Corrected assay traces were fitted in Prism.

[2] = target: T1, DNMT1 (amino acids 621–1616); experiment: Differential scanning fluorimetry (DSF) assay; type: binding; details: 100 µM compound; for Tm: 2 µM DNMT1, no DNA or SAM, DMSO 46.5 ± 0.1; for ∆Tm: shift versus DMSO control
Experimental: DSF [32] was used to assess the ability of the validated inhibitors to bind directly to DNMT1 in the absence of DNA and SAM and alter the observed melting temperature (Tm). Assays (25 µl) were conducted in triplicate in a Bio-Rad C1000 Thermal Cycler – CFX Real-Time System using the FRET channel and contained 50 mM HEPES pH 7.5, 150 mM NaCl, 2 µM DNMT1 (amino acids 621–1616), 5X Sypro Orange (Invitrogen Molecular Probes), 100 µM compound, and 1% DMSO. A DMSO control assay in the absence of compounds was also examined. Temperature was increased from 25 to 95°C by 0.5°C per minute. Fluorescence traces were exported and analyzed by fitting to the Boltzmann equation in Prism to determine the Tm.

calf thymus DNA = experiment: DNA intercalation assay (ethidium bromide displacement); type: binding; details: 10 µM compound, 15 µg/ml ctDNA, 1.5 µM ethidium bromide; DMSO 2370 ± 190
Experimental: DNA intercalation was assessed by examining the ability of the compounds to displace ethidium bromide from calf thymus DNA (ctDNA; Sigma). Duplicate assays (100 µl) were conducted in black 96 well plates and contained 15 µg/ml ctDNA, 1.5 µM ethidium bromide and 10 µM compound in methylation assay buffer. DMSO was used as a negative control and daunorubicin (Sigma) was used as a positive control. Fluorescence was measured using excitation and emission wavelengths of 320 nm and 600 nm, respectively.

[3] = target: T1, DNMT1 (amino acids 621–1616); experiment: Validation of HTS hits, endonuclease-coupled DNA methylation assay; type: biochemical; parameters: Percent Activity: concentration or dose not given beside the values; details: for vo (initial velocity): first 12 minutes of GlaI corrected triplicate reaction traces; for Percent Activity: from initial velocity compared to DMSO control; for Normalized RFU: normalized to DMSO control (100) and GlaI control without DNMT1 (0); for RFU: relative fluorescence after 25-minute incubation at 37 °C, 10.9 µM test compound, three replicates
Experimental: DNMT activity was measured at 37°C using a fluorogenic DNA methylation assay. In short, a hemi-methylated hairpin oligonucleotide with a 5′ fluorophore and a 3′ quencher is methylated by addition of a DNMT and the methyl-donating co-factor, S-adenosyl methionine (SAM, HPLC-purified from Sigma). The fully methylated product is a substrate for the restriction endonuclease GlaI (Sibenzyme), which cleaves the oligonucleotide, releasing the fluorophore from the quencher and generating fluorescence. The oligonucleotide substrate (5′-FAM–[…]m[…]mCGmCATAGG-3′-Iowa Black, in which mC denotes 5-methyldeoxycytidylate residues), termed 8006, was synthesized by Integrated DNA Technologies, Coralville, IA. 96 well assays were performed in Co-Star black half-area plates and read in a Biotek Synergy Neo plate reader. 384 well assays were performed in Nunc flat-bottomed black plates and read in a PerkinElmer EnVision plate reader. FAM fluorescence was measured using excitation and emission wavelengths of 485 nm and 520 nm, respectively.
HTS against the Spectrum compound collection (Microsource, Gaylordsville, CT) was performed in eight 384 well plates. Using a Multiflo dispenser (Biotek), 75 µl of assay buffer (10.8 mM Tris-HCl pH 7.5, 1.08 mM MgCl2, 1.08 mM DTT, 108 mM potassium glutamate, 0.108 mg/ml BSA, 10.8 µM SAM, 21.6 nM oligonucleotide 8006, 5.4% glycerol) was dispensed into each well. 1 µl of each compound at 880 µM in DMSO (columns 3–22) or DMSO (columns 1, 2, 23 and 24) was added to assay plates using a Microlab Star liquid handling robot (Hamilton) and the plate was incubated at 37°C for 10 minutes. Following this warming step, 5 µl enzyme solution (either a DNMT1-containing solution of 20 mM Tris-HCl, pH 7.5, 300 mM NaCl, 2 mM DTT, 49 nM DNMT1 (amino acids 621–1616), 0.08 U/µl GlaI, 30% glycerol to columns 2–23 or a GlaI control solution of 20 mM Tris-HCl, pH 7.5, 300 mM NaCl, 2 mM DTT, 0.08 U/µl GlaI, 30% glycerol to columns 1 and 24) was added and the plate was again incubated at 37°C for 25 minutes. […] Each 384 well plate contained two columns of negative (n) and positive (p) controls for inhibitor activity. Columns 2 and 23 were the n controls with DMSO without test compound. Columns 1 and 24 were the p controls without DNMT1. Thus, 320 compounds were assayed per 384 well plate in columns 3–22.
Data across the screen were normalized to the p (0% DNMT1 activity) and n (100% DNMT1 activity) controls on each plate. […] Validation assays (81 µl total volume, identical buffer conditions to those used in the HTS screen) were performed in triplicate in 96 well plates with FAM fluorescence measured over the course of 1 hour. A control containing GlaI in the absence of DNMT1 was subtracted from each assay condition. Corrected assay traces were plotted and compared to DMSO-containing control traces in Prism (GraphPad Software, Inc).

GlaI = GlaI counterscreen; type: biochemical; details: 11 µM test compound; for Initial Velocity: 5 nM oligonucleotide 8007, 0.2 U GlaI; for Percent Activity: compared to DMSO
Experimental: GlaI inhibitors were identified and excluded using a fluorescence-based assay. Duplicate assays (80 µl) were conducted in 96 well plates. Assays contained 10 mM Tris-HCl pH 7.5, 100 mM potassium glutamate, 1 mM MgCl2, 1 mM DTT, 0.1 mg/mL BSA, 5% glycerol, 5 nM oligonucleotide 8007 (5′-FAM-CCTATGmCGm[…]mCGmCATAGG-3′-Iowa Black, where mC denotes 5-methyldeoxycytidylate residues, Integrated DNA Technologies, Coralville, IA), 0.2 U GlaI, 11 µM test compound and 1.2% DMSO. Reactions were initiated by the addition of GlaI. Cleavage of the oligonucleotide releases the 5′ FAM fluorophore from the 3′ Iowa Black quencher and generates fluorescence. A control reaction in the absence of GlaI was subtracted from each assay condition to account for background fluorescence of the internally quenched substrate. Corrected time courses were fitted in Prism.

[4] = absence of 0.01% Triton X-100, read-out: Percent activity, 0.01% Triton X-100 -
[5] = presence of 0.01% Triton X-100, read-out: Percent activity, 0.01% Triton X-100 +

T1 sequence (P26358 621-1616): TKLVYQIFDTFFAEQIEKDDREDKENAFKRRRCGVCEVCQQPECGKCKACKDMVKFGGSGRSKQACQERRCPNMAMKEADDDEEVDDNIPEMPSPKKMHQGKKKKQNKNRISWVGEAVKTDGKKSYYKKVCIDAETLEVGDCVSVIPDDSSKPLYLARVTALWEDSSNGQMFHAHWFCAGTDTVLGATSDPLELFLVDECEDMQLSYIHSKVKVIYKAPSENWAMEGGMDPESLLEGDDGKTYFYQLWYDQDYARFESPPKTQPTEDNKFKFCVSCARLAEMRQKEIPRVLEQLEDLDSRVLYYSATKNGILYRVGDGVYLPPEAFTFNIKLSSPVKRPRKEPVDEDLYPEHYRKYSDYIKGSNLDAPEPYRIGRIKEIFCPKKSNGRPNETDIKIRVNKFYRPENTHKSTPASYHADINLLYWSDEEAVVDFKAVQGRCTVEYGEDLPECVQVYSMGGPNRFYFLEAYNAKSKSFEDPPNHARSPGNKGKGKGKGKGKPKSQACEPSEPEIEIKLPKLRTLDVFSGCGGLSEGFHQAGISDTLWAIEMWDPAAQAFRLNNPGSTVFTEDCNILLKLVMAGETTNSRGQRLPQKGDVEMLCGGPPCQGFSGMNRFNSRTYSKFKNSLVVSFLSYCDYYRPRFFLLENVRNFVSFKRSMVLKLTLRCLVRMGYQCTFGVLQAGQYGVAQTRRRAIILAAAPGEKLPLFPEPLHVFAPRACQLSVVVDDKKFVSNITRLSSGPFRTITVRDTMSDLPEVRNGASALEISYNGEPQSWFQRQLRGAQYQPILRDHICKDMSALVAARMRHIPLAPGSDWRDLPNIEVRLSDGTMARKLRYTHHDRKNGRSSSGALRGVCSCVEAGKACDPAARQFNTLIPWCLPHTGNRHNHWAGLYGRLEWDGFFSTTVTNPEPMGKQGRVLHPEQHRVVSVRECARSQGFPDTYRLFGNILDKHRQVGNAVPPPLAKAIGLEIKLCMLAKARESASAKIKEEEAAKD

## CC(=O)NCCc1ccc(O)c(-c2c(O)c(O)c3c(c2O)C(=O)c2c(cc(O)c(C(=O)O)c2C(=O)O)C3=O)c1 [Cmpd 40, Laccaic acid A]
[1]; [4]
  remaining activity at 5 µM: 56%
[1]; [5]
  remaining activity at 5 µM: 58%
[2]
  Tm: 48.5 ± 0.1 ºC
  ∆Tm: +2.0 ºC
Calf thymus DNA
  RFU (ethidium bromide fluorescence): 2311 ± 148 RFU
[3]
  vo (initial velocity): 6 ± 1 RFU/min
  Percent Activity: 11%
  Normalized RFU: 5
  RFU: 602 ± 4 RFU
GlaI
  Initial Velocity: 22 ± 3 RFU/min
  Percent Activity: 79%

## O=C(O)c1cc(O)c2c(c1)[C@@H]([C@H]1c3cc(C(=O)O)cc(O)c3C(=O)c3c(O[C@H]4O[C@H](CO)[C@@H](O)[C@H](O)[C@H]4O)cccc31)c1cccc(O[C@H]3O[C@H](CO)[C@@H](O)[C@H](O)[C@H]3O)c1C2=O [Cmpd 22]
[1]; [4]
  remaining activity at 5 µM: 7%
[1]; [5]
  remaining activity at 5 µM: 9%
[2]
  Tm: 47.5 ± 0.1 ºC
  ∆Tm: +1.0 ºC
Calf thymus DNA
  RFU (ethidium bromide fluorescence): 2415 ± 150 RFU
[3]
  Percent Activity: 0%
  Normalized RFU: 7
  RFU: 621 ± 12 RFU
GlaI
  Initial Velocity: 24 ± 1 RFU/min
  Percent Activity: 86%

## O=C(O)C(S)C(S)C(=O)O (stereo not drawn) [Cmpd 51]
[1]; [4]
  remaining activity at 5 µM: 10%
[1]; [5]
  remaining activity at 5 µM: 8%
[2]
  Tm: 49.0 ± 0.1 ºC
  ∆Tm: +2.5 ºC
Calf thymus DNA
  RFU (ethidium bromide fluorescence): 2525 ± 200 RFU
[3]
  vo (initial velocity): 5 ± 1 RFU/min
  Percent Activity: 9%
  Normalized RFU: 6
  RFU: 612 ± 55 RFU
GlaI
  Initial Velocity: 25 ± 1 RFU/min
  Percent Activity: 89%

## Oc1cc(Cl)ccc1Oc1ccc(Cl)cc1Cl [Cmpd 13, triclosan]
[1]; [4]
  remaining activity at 5 µM: 52%
[1]; [5]
  remaining activity at 5 µM: 48%
[2]
  Tm: 47.5 ± 0.1 ºC
  ∆Tm: +1.0 ºC
Calf thymus DNA
  RFU (ethidium bromide fluorescence): 2406 ± 5 RFU
[3]
  vo (initial velocity): 15 ± 2 RFU/min
  Percent Activity: 27%
  Normalized RFU: 19
  RFU: 779 ± 42 RFU
GlaI
  Initial Velocity: 28 ± 2 RFU/min

## O=c1c(O)c(-c2ccc(O)c(O)c2)oc2c(O)c(O)cc(O)c12 [Cmpd 33]
[1]; [4]
  remaining activity at 5 µM: 53%
[1]; [5]
  remaining activity at 5 µM: 47%
[2]
  Tm: 64.4 ± 0.2 ºC
  ∆Tm: +17.9 ºC
Calf thymus DNA
  RFU (ethidium bromide fluorescence): 2524 ± 45 RFU
[3]
  vo (initial velocity): 25 ± 3 RFU/min
  Percent Activity: 45%
  Normalized RFU: 46
  RFU: 1145 ± 147 RFU
GlaI
  Initial Velocity: 27 ± 2 RFU/min

## CC1/C=C/C=C/C=C/C=C/C=C/C=C/C=C/C(O[C@@H]2O[C@H](C)[C@H](O)[C@@H](O)[C@@H]2N)CC(O)C(C(=O)O)C(O)CC(=O)CC(O)CC(O)CC(O)CC(=O)CCCC(=O)CC(=O)OC1C(C)CC(C)C(O)CC(=O)c1ccc(N)cc1 (stereo partly drawn) [Cmpd 24]
[1]; [4]
  remaining activity at 5 µM: 0%
[1]; [5]
  remaining activity at 5 µM: 0%
[2]
  Tm: 47.5 ± 0.1 ºC
  ∆Tm: +1.0 ºC
Calf thymus DNA
  RFU (ethidium bromide fluorescence): 2389 ± 64 RFU
[3]
  vo (initial velocity): 5 ± 1 RFU/min
  Percent Activity: 9%
  Normalized RFU: 11
  RFU: 677 ± 60 RFU
GlaI
  Initial Velocity: 27 ± 1 RFU/min

## O=C(O)c1cc(O)c2c(c1)[C@@H]([C@@H]1c3cc(C(=O)O)cc(O)c3C(=O)c3c(O[C@H]4O[C@H](CO)[C@@H](O)[C@H](O)[C@H]4O)cccc31)c1cccc(O[C@H]3O[C@H](CO)[C@@H](O)[C@H](O)[C@H]3O)c1C2=O [Cmpd 36]
[1]; [4]
  remaining activity at 5 µM: 0%
[1]; [5]
  remaining activity at 5 µM: 0%
[2]
  Tm: 47.4 ± 0.1 ºC
  ∆Tm: +0.9 ºC
Calf thymus DNA
  RFU (ethidium bromide fluorescence): 2309 ± 60 RFU
[3]
  Percent Activity: 0%
  Normalized RFU: 5
  RFU: 591 ± 41 RFU
GlaI
  Initial Velocity: 28 ± 1 RFU/min

## O=C1c2ccccc2C(=O)c2c1ccc(O)c2O [Cmpd 26, alizarin]
[1]; [4]
  remaining activity at 5 µM: 67%
[1]; [5]
  remaining activity at 5 µM: 63%
[2]
  Tm: 48.5 ± 0.1 ºC
  ∆Tm: +2.0 ºC
Calf thymus DNA
  RFU (ethidium bromide fluorescence): 2364 ± 30 RFU
[3]
  vo (initial velocity): 27 ± 2 RFU/min
  Percent Activity: 49%
  Normalized RFU: 37
  RFU: 1024 ± 110 RFU
GlaI
  Initial Velocity: 22 ± 1 RFU/min
  Percent Activity: 79%

## CSc1nc2cc(Cl)c(Oc3cccc(Cl)c3Cl)cc2[nH]1 [Cmpd 29, triclabendazole]
[1]; [4]
  remaining activity at 5 µM: 52%
[1]; [5]
  remaining activity at 5 µM: 46%
[2]
  Tm: 48.3 ± 0.1 ºC
  ∆Tm: +1.8 ºC
Calf thymus DNA
  RFU (ethidium bromide fluorescence): 2500 ± 144 RFU
[3]
  vo (initial velocity): 20 ± 2 RFU/min
  Percent Activity: 36%
  Normalized RFU: 27
  RFU: 889 ± 20 RFU
GlaI
  Initial Velocity: 22 ± 2 RFU/min
  Percent Activity: 79%
